Assay results: US8871754B2, “Compounds and compositions for the treatment of parasitic diseases” (IRM LLC, priority 2012, dated 2014)

Key:
[1] = system: P. falciparum (NF54 or 3D7 strain) in infected human erythrocytes; experiment: Assay for P. falciparum proliferation in infected human blood cells (SYBR Green); assay type: cell-based; conditions: Plasmodium falciparum, Erythrocyte; NF54 or 3D7 strain, 72 hours, SYBR Green fluorescence; read-out: EC50 (nM), inhibitory efficacy in delaying P. falciparum proliferation in infected human blood cells
Procedure: Assay for P. falciparum Proliferation in Infected Human Blood Cells
Compounds of the invention can be assayed to measure their capacity to inhibit proliferation of P. falciparum parasitemia in infected red blood cells. This parasite proliferation assay measures the increase in parasite DNA content using a DNA intercalating dye, SYBR Green® (INVITROGEN®) which has a high affinity for double stranded DNA.
NF54 or 3D7 P. falciparum strain is grown in complete culturing media until parasitemia reaches 3% to 8% with O+ human erythrocytes. […] 20 μl of screening media is dispensed into 384 well assay plates. 50 nl of compounds of the invention (in DMSO), including antimalarial controls (mefloquine, pyrimethamine and artemisinin), are then transferred into the assay plates, as well as DMSO alone to serve as a negative control for inhibition. Then 30 μl of a suspension of a NF54 or 3D7 P. falciparum infected erythrocytes in screening media is dispensed into the assay plates such that the final hematocrit is 2.5% with a final parasitemia of 0.3%. The plates are placed in a 37° C. incubator for 72 hours in a low oxygen environment containing 93% N2, 4% CO2, and 3% O2 gas mixture. 10 μl of lysis buffer (saponin, triton-X, EDTA) containing a 10× solution of SYBR Green I® in RPMI media is dispensed into the plates. The plates are lidded and kept at room temperature overnight for the lysis of the infected red blood cells. The fluorescence intensity is measured (excitation […], emission 530 nm) using the Envision™ system (Perkin Elmer). The percentage inhibition of 50%, […], is calculated for each compound.

[2] = system: P. yoelii sporozoites in HepG2-A16-CD81EGFP cells; experiment: P. yoelii sporozoite invasion assay (proliferation of parasite in infected liver cells, immunofluorescence); assay type: cell-based; conditions: Plasmodium yoelii, 48 hours, parasite area by immunofluorescence, read-out: EC50 (nM), inhibitory efficacy by the P. yoelii sporozoite invasion assay
Source text: Assay for Profiferation of Parasite in Infected Liver Cells
Compounds of the invention can be assayed to measure their capacity to inhibit proliferation of parasites in liver cells. The proliferation is quantified by determine the number of infected cells by immunofluorescence.
Due to the difficulty of successfully infecting immortalized human liver cell lines with the human malaria sporozoites (liver-stage parasite), rodent malaria sporozoites from Plasmodium yoelii (17XNL) and P. berghei (ANKA) are the preferred surrogate. Sporozoites are obtained from Anopheles stephensi mosquitoes supplied by the New York University Insectary, which ships the malaria-infected mosquitoes 10-13 days following the ingestion of an infective blood meal.
A transgenic HepG2 cell line expressing the tetraspanin CD81 receptor (HepG2-A16-CD81^EGFP) is used to increase the infectivity rate of rodent-malaria sporozoites into human cells. HepG2-A16-CD81^EGFP cells are stably transformed to express a GFP-CD81 fusion protein. A continuous in vitro culture of this line was maintained at 37° C. in 4% CO2 in complete media (CM) which contains: DMEM (Invitrogen, Carlsbad, USA) supplemented with 10% FCS, 0.29 mg/ml glutamine, 100 units penicillin and 100 μg/ml streptomycin (SigmaAldrich, USA).
P. yoelii Sporozoite Invasion Assay
Twenty to twenty-six hours prior to sporozoite infection, 7.5×10^3 HepG2-A16-CD81^EGFP cells are seeded into 384-well plates (Aurora 384 IQ-EB black plates with clear bottoms; 50 μl of 1.5×10^5 cells/ml in CM). These plates are incubated at 37° C. with 4% CO2 overnight. Two hours prior to infection, 50 nl of compound dissolved in DMSO (0.1% final DMSO concentration per well) were transferred with a PinTool (GNF Systems) into the assay plates (10 μM final concentration). A 1:3 serial dilution of atovaquone (10 μM at the highest final concentration) and wells treated only with DMSO were used as positive and negative controls, respectively.
Freshly dissected salivary glands from infected mosquitoes were homogenized in a glass tissue grinder, filtered twice through Nylon cell strainers (40 μm pore size, BD Falcon) and counted using a hemocytometer. The assay plate with HepG2-A16-CD81^EGFP cells and compound were then infected with 8×10^3 sporozoitesper well and the plates are subjected to a centrifugal force of 650×g to pellet the sporozoites onto the liver cell monolayer. The assay plate is incubated at 37° C. for 2 hours to permit sporozoite invasion, then the media is aspirated from the media plate, and replaced with 50 μl CM (containing a 5× concentration of penicillin/streptomycin; 500 units penicillin and 0.5 mg streptomycin per ml) per well. 50 nl of compound is re-introduced by PinTool and the assay plate incubated for 48 hours at 37° C. before quantification of infected cells by immunofluorescence.
Atovaquone and uninfected wells were used as controls on each plate. Two replicate plates are tested for each assay.
Immunofluorescence Quantification of Exo-Erythrocytic Forms (EEFs)
After fixing the cells by addition of 12.5 μl of 20% solution of paraformaldehyde (EMS, Hatfield, USA) to each assay well (4% final formaldehyde concentration), membranes were permeabilized with 0.5% Triton-X-100 (Thermo Fisher Scientific) and EEFs were stained using a mouse polyclonal serum raised against the Plasmodium yoelii heat shock protein 70 (PyHSP70), a DyLight 649 goat anti-mouse IgG, Fc(gamma) fragment specific secondary antibody (Jackson Immuno Research, Cat#115-495-071) and the Hoechst 33342 nucleic acid dye (Invitrogen, Carlsbad, USA). Stained EEFs were then quantified using the Opera Confocal High Content Screening System (Perkin Elmer, Waltham, USA). Images were collected using a 20× objective lens (20×/0.45 NA, LWD Plan Fluor, Olympus) at a binning of 2, using a 365 nm Xeon arc lamp illumination to detect the Hoechst-labeled nuclei and 635 nm laser line to excite DyLight649-labeled parasites. […]

SMILES | EC50 [1] [nM] | EC50 [2] [nM]
CN(C(=O)c1ccn2ncc(-c3ccc(C(F)(F)F)cc3)c2c1)c1ccc(C#N)cc1 [Example 1, N-(4-cyanophenyl)-N-methyl-3-(4-(trifluoromethyl)phenyl)pyrazolo[1,5-a]pyridine-5-carboxamide] | 8 | 7.3
CN(C(=O)c1ccn2ncc(-c3ccc(C(F)(F)F)cc3)c2c1)c1ccc(C#N)cn1 [Example 13, N-(5-cyanopyridin-2-yl)-N-methyl-3-(4-(trifluoromethyl)phenyl)pyrazolo[1,5-a]pyridine-5-carboxamide] | 8 | 17.9
CN(C(=O)c1ccn2ncc(-c3ccc(C(N)=O)cc3)c2c1)c1ccc(C#N)cc1 [Example 19, 3-(4-carbamoylphenyl)-N-(4-cyanophenyl)-N-methylpyrazolo[1,5-a]pyridine-5-carboxamide] | 1 | 4.3
CN(C(=O)c1ccn2ncc(-c3ccc(C(N)=O)cc3)c2c1)c1ccc(F)cc1 [Example 20, 3-(4-carbamoylphenyl)-N-(4-fluorophenyl)-N-methylpyrazolo[1,5-a]pyridine-5-carboxamide] | 9 | 13.5
CN(C(=O)c1ccn2ncc(-c3ccc(C(F)(F)F)cn3)c2c1)c1ccc(C#N)cn1 [Example 25, N-(5-cyanopyridin-2-yl)-N-methyl-3-(5-(trifluoromethyl)109yridine-2-yl)pyrazolo[1,5-a]pyridine-5-carboxamide] | 7 | 229
CN(C(=O)c1ccn2ncc(-c3ccc(C(N)=O)cn3)c2c1)c1ccc(C#N)cc1 [Example 27, 3-(5-carbamoylpyridin-2-yl)-N-(4-cyanophenyl)-N-methylpyrazolo[1,5-a]pyridine-5-carboxamide] | 10 | 201
CN(C(=O)c1ccc(C#N)cc1)c1ccn2ncc(-c3ccc(C(F)(F)F)cc3)c2c1 [Example 28, 4-cyano-N-methyl-N-(3-(4-(trifluoromethyl)phenyl)pyrazolo[1,5-a]pyridine-5-yl)benzamide] | 7 | 23.2
CN(C(=O)c1ccn2ncc(-c3ccc(C(N)=O)cc3)c2c1)c1ccc(C#N)cn1 [Example 32, 3-(4-carbamoylphenyl)-N-(5-cyanopyridin-2-yl)-N-methylpyrazolo[1,5-a]pyridine-5-carboxamide] | 1 | 8
CN(C(=O)c1ccn2ncc(-c3ccc(C(F)(F)F)cc3)c2c1)c1ccc(S(C)(=O)=O)cn1 [Example 34, N-methyl-N-(5-(methylsulfonyl)114yridine-2-yl)-3-(4-(trifluoromethyl)phenyl)pyrazolo[1,5-a]pyridine-5-carboxamide] | 22 | 53.2
CN(C(=O)c1ccn2ncc(-c3cnc4[nH]ccc4c3)c2c1)c1ccc(C#N)cc1 [Example 40, N-(4-cyanophenyl)-N-methyl-3-(1H-pyrrolo[2,3-b]pyridin-5-yl)pyrazolo[1,5-a]pyridine-5-carboxamide] | 1 | 63.1
CN(C(=O)c1ccn2ncc(-c3ccc(N)nc3)c2c1)c1ccc(C#N)cc1 [Example 41, 3-(6-aminopyridin-3-yl)-N-(4-cyanophenyl)-N-methylpyrazolo[1,5-a]pyridine-5-carboxamide] | 2 | 14.3
CN(C(=O)c1ccn2ncc(-c3ccc(N)nc3)c2c1)c1ccc(C#N)cn1 [Example 54, 3-(6-aminopyridin-3-yl)-N-(5-cyanopyridin-2-yl)-N-methylpyrazolo[1,5-a]pyridine-5-carboxamide] | 9 | 79
CNC(=O)c1ccc(-c2cnn3ccc(C(=O)N(C)c4ccc(C#N)cc4)cc23)cc1 [Example 67, N-(4-cyanophenyl)-N-methyl-3-(4-(methylcarbamoyl)phenyl)pyrazolo[1,5-a]pyridine-5-carboxamide] | 5 | 4.6
CNC(=O)c1ccc(-c2cnn3ccc(C(=O)N(C)c4ccc(C#N)cn4)cc23)cc1 [Example 75, N-(5-cyanopyridin-2-yl)-N-methyl-3-(4-(methylcarbamoyl)phenyl)pyrazolo[1,5-a]pyridine-5-carboxamide] | 4 | 2.25
CN(C(=O)c1ccn2ncc(-c3ccc(C(N)=O)cc3)c2c1)C1CCC(C#N)CC1 (stereo not drawn) [Example 82, 3-(4-carbamoylphenyl)-N-(4-cyanocyclohexyl)-N-methylpyrazolo[1,5-a]pyridine-5-carboxamide] | 1160 | –
CN(C(=O)c1ccn2ncc(-c3cnc(N)nc3)c2c1)c1ccc(C#N)cc1 [Example 83, 3-(2-aminopyrimidin-5-yl)-N-(4-cyanophenyl)-N-methylpyrazolo[1,5-a]pyridine-5-carboxamide] | 4 | –
CN(C(=O)c1ccn2ncc(-c3cnc(N)c(C(F)(F)F)c3)c2c1)c1ccc(C#N)cn1 [Example 84, 3-(6-amino-5-(trifluoromethyl)pyridin-3-yl)-N-(5-cyanopyridin-2-yl)-N-methylpyrazolo[1,5-a]pyridine-5-carboxamide] | 6 | –
CN(C(=O)c1ccn2ncc(-c3cnc(N)c(C#N)c3)c2c1)c1ccc(C#N)cn1 [Example 85, 3-(6-amino-5-cyanopyridin-3-yl)-N-(5-cyanopyridin-2-yl)-N-methylpyrazolo[1,5-a]pyridine-5-carboxamide] | 16 | –
CN(C(=O)c1ccn2ncc(-c3cnc(N)c(Cl)c3)c2c1)c1ccc(C#N)cn1 [Example 86, 3-(6-amino-5-chloropyridin-3-yl)-N-(5-cyanopyridin-2-yl)-N-methylpyrazolo[1,5-a]pyridine-5-carboxamide] | 10 | –
CN(C)C(=O)c1cc(-c2cnn3ccc(C(=O)N(C)c4ccc(C#N)cn4)cc23)cnc1N [Example 87, 3-(6-amino-5-(dimethylcarbamoyl)pyridin-3-yl)-N-(5-cyanopyridin-2-yl)-N-methylpyrazolo[1,5-a]pyridine-5-carboxamide] | 41 | –
COc1cc(-c2cnn3ccc(C(=O)N(C)c4ccc(C#N)cn4)cc23)cnc1N [Example 88, 3-(6-amino-5-methoxypyridin-3-yl)-N-(5-cyanopyridin-2-yl)-N-methylpyrazolo[1,5-a]pyridine-5-carboxamide] | 83 | –
CN(C(=O)c1ccn2ncc(-c3ccc(C(N)=O)cc3)c2c1)c1ccc(Cl)cc1C=O [Example 89, 3-(4-carbamoylphenyl)-N-(4-chloro-2-formylphenyl)-N-methylpyrazolo[1,5-a]pyridine-5-carboxamide] | 6 | –
